ChEMBL document CHEMBL4130353, “2-Substituted 3,7,8-trimethylnaphtho[1,2-b]furan-4,5-diones as specific L-shaped NQO1-mediated redox modulators for the treatment of non-small cell lung cancer” (Eur J Med Chem, 2017)
Converted amounts (≈) assume the structure as drawn. The source made the active and inactive calls. The calls are words filed in the database; no cut-off is given here.

Experiments:
HEK293 = assay: Cytotoxicity against HEK293 cells assessed as cell growth inhibition preincubated for 24 hrs followed by compound washout measured after 72 hrs by MTT assay; format: functional, cell-based; details: Homo sapiens
[1] = molecular target: NAD(P)H dehydrogenase [quinone] 1 (Homo sapiens) (UniProt P15559); assay: Substrate activity at NQO1 in human A549 cells assessed as induction of ROS-induced p38 phosphorylation at T180/Y182 after 3 hrs by Western blot analysis; format: cell-based
NAD(P)H dehydrogenase [quinone] 1 (Homo sapiens), sequence (P15559 whole entry): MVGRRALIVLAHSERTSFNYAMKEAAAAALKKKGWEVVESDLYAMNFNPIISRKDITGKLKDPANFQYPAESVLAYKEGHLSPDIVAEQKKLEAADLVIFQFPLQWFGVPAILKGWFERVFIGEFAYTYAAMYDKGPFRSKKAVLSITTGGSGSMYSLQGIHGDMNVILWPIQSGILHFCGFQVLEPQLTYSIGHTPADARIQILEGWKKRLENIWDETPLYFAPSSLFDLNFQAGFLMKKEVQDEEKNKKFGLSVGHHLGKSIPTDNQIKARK

[2] = molecular target: NAD(P)H dehydrogenase [quinone] 1 (Homo sapiens) (UniProt P15559); assay: Substrate activity at NQO1 in human A549 cells assessed as induction of ROS-induced Akt phosphorylation at S473 at 10 uM after 3 hrs in presence of DIC by Western blot analysis relative to control; format: cell-based
[3] = Solubility of the compound in diluted HCl buffer at pH 3; format: physicochemical
[4] = molecular target: NAD(P)H dehydrogenase [quinone] 1 (Homo sapiens) (UniProt P15559); assay: Substrate activity at NQO1 in human A549 cells assessed as induction of ROS-induced ERK phosphorylation after 3 hrs by Western blot analysis; format: cell-based
[5] = molecular target: NAD(P)H dehydrogenase [quinone] 1 (Homo sapiens) (UniProt P15559); assay: Substrate activity at NQO1 in human A549 cells assessed as induction of ROS-induced Akt phosphorylation at […] at 10 uM after 3 hrs in presence of NAC by Western blot analysis relative to control; format: cell-based
A549 [6] = assay: Effect on total AKT protein levels in human A549 cells at 10 uM after 3 hrs by Western blot analysis relative to control; format: ADME, cell-based; details: a549, 3 h
[7] = molecular target: NAD(P)H dehydrogenase [quinone] 1 (Homo sapiens) (UniProt P15559); assay: Substrate activity at NQO1 in human A549 cells assessed as induction of ROS-induced p38 phosphorylation at T180/Y182 at 1 uM after 3 hrs by Western blot analysis relative to control; format: cell-based
A549 [8] = assay: Induction of apoptosis in human A549 cells assessed as increase in cleaved PARP expression at 10 uM after 24 hrs in presence of DIC by Western blot analysis; format: functional, cell-based
[9] = molecular target: NAD(P)H dehydrogenase [quinone] 1 (Homo sapiens) (UniProt P15559); assay: Substrate activity at NQO1 in human A549 cells assessed as induction of ROS-induced p38 phosphorylation at T180/Y182 at 5 uM after 3 hrs by Western blot analysis relative to control; format: cell-based
A549 [10] = assay: Effect on total AKT protein levels in human A549 cells at 10 uM after 3 hrs in presence of NAC by Western blot analysis relative to control; format: ADME, cell-based; details: a549, 3 h
A549 [11] = assay: Effect on total AKT protein levels in human A549 cells at 5 uM after 3 hrs by Western blot analysis relative to control; format: ADME, cell-based; details: a549, 3 h
[12] = molecular target: NAD(P)H dehydrogenase [quinone] 1 (Homo sapiens) (UniProt P15559); assay: Substrate activity at NQO1 in human A549 cells assessed as induction of ROS-induced Akt phosphorylation at S473 at 10 uM after 3 hrs in presence of NAC by Western blot analysis relative to control; format: cell-based
A549/TR = assay: Cytotoxicity against human A549/TR cells assessed as cell growth inhibition preincubated for 24 hrs followed by compound washout measured after 72 hrs by MTT assay; format: functional, cell-based
[13] = molecular target: NAD(P)H dehydrogenase [quinone] 1 (Homo sapiens) (UniProt P15559); assay: Substrate activity at NQO1 in human A549 cells assessed as induction of enzyme-catalyzed lipid peroxidation by measuring MDA equivalents per protein at 10 uM after 24 hrs by TBARS assay; format: cell-based
[14] = molecular target: NAD(P)H dehydrogenase [quinone] 1 (Homo sapiens) (UniProt P15559); assay: Substrate activity at NQO1 in human A549 cells assessed as induction of enzyme-catalyzed ROS production at 10 uM after 1 to 3 hrs in presence of NAC by DCFH-DA-based flow cytometry; format: cell-based
[15] = molecular target: NAD(P)H dehydrogenase [quinone] 1 (Homo sapiens) (UniProt P15559); assay: Substrate activity at NQO1 in human A549 cells assessed as induction of ROS-induced ERK phosphorylation at 1 uM after 3 hrs by Western blot analysis relative to control; format: cell-based
L02 [16] = assay: Cytotoxicity against human L02 cells assessed as cell growth inhibition preincubated for 24 hrs followed by compound washout measured after 72 hrs by MTT assay; format: cell-based
A549 [17] = assay: Effect on total p38 protein levels in human A549 cells at 10 uM after 3 hrs in presence of DIC by Western blot analysis relative to control; format: ADME, cell-based; details: a549, 3 h
A549 [18] = assay: Antitumor activity against human A549 cells xenografted in athymic nude mouse assessed as tumor growth inhibition at 15 mg/kg, iv administered every other day for 3 weeks measured every day during compound dosing relative to control; format: functional; details: 504 h, read-out: TGI
Mus musculus = assay: Toxicity in athymic nude mouse xenografted with human A549 cells assessed as effect on body weight at 50 mg/kg, iv administered every other day for 3 weeks; format: organism-based; details: in vivo, 504 h
A549 [19] = assay: Effect on total ERK protein levels in human A549 cells at 10 uM after 3 hrs in presence of NAC by Western blot analysis relative to control; format: ADME, cell-based; details: a549, 3 h
A549 [20] = assay: Induction of apoptosis in human A549 cells assessed as chromatin condensation after 24 hrs by DAPI-staining based microscopy; format: functional, cell-based
A549 [21] = assay: Cytotoxicity against human A549 cells assessed as cell growth inhibition preincubated for 24 hrs followed by compound washout measured after 72 hrs in presence of NQO1 inhibitor DIC by MTT assay; format: functional, cell-based
L02 [22] = assay: Induction of intracellular ROS levels in human L02 cells at 10 uM after 1 to 3 hrs by DCFH-DA-based flow cytometry; format: cell-based; details: l02, 10 µM
HCT-116 = assay: Cytotoxicity against human HCT116 cells assessed as cell growth inhibition preincubated for 24 hrs followed by compound washout measured after 72 hrs by MTT assay; format: functional, cell-based
[23] = molecular target: NAD(P)H dehydrogenase [quinone] 1 (Homo sapiens) (UniProt P15559); assay: Substrate activity at NQO1 in human A549 cells assessed as induction of ROS-induced JNK phosphorylation after 3 hrs by Western blot analysis; format: cell-based
[24] = molecular target: NAD(P)H dehydrogenase [quinone] 1 (Homo sapiens) (UniProt P15559); assay: Substrate activity at NQO1 in human A549 cells assessed as induction of ROS-induced JNK phosphorylation at 1 uM after 3 hrs by Western blot analysis relative to control; format: cell-based
[25] = Effective permeability of the compound at pH 7.4 by PAMPA assay; format: ADME; details: read-out: Peff
[26] = molecular target: NAD(P)H dehydrogenase [quinone] 1 (Homo sapiens) (UniProt P15559); assay: Substrate activity at NQO1 in human A549 cells assessed as induction of ROS-induced Akt phosphorylation at […] at 5 uM after 3 hrs by Western blot analysis relative to control; format: cell-based
[27] = Intrinsic solubility of the compound; format: physicochemical; details: read-out: Intrinsic_solubility
Homo sapiens [28] = species: Homo sapiens; assay: Selectivity ratio for substrate activity at recombinant human NQO1 to substrate activity at human CPR
A549 [29] = assay: Antitumor activity against human A549 cells xenografted in athymic nude mouse assessed as tumor growth inhibition at 30 mg/kg, iv administered every other day for 3 weeks measured every day during compound dosing relative to control; format: functional; details: 504 h, read-out: TGI
[30] = molecular target: NAD(P)H dehydrogenase [quinone] 1 (Homo sapiens) (UniProt P15559); assay: Substrate activity at NQO1 in human A549 cells assessed as induction of ROS-induced ERK phosphorylation at 5 uM after 3 hrs by Western blot analysis relative to control; format: cell-based
Homo sapiens [31] = species: Homo sapiens; assay: Selectivity ratio for substrate activity at recombinant human NQO1 to substrate activity at CBR (unknown origin)
[32] = molecular target: NAD(P)H dehydrogenase [quinone] 1 (Homo sapiens) (UniProt P15559); assay: Substrate activity at NQO1 in human A549 cells assessed as induction of ROS-induced Akt phosphorylation at S473 at 5 uM after 3 hrs by Western blot analysis relative to control; format: cell-based
A549 [33] = assay: Antitumor activity against human A549 cells xenografted in athymic nude mouse assessed as tumor growth inhibition at 50 mg/kg, iv administered every other day for 3 weeks measured every day during compound dosing relative to control; format: functional; details: 504 h, read-out: TGI
A549 [34] = assay: Cytotoxicity against human A549 cells assessed as cell growth inhibition preincubated for 24 hrs followed by compound washout measured after 72 hrs by MTT assay; format: functional, cell-based

In the case of `Cc1cc2c(cc1C)-c1oc(CNc3ccc(CN4CCOCC4)cc3)c(C)c1C(=O)C2=O`, the IC50 (HEK293) is reported as 3.9 µM, the Activity [1] is reported as “Dose-dependent effect” and the fold change (FC) [2] is reported as 1.36. The solubility [3] was over 1000 µg/mL, the Activity [4] was “Dose-dependent effect” and the fold change (FC) [5] was 2.8. For the same compound, the “fold change (FC)” value (A549 [6]) was 1.3, the fold change (FC) [7] was 11.1 and the Activity (A549 [8]) was “inactive”. The fold change (FC) [9] was 12.1, the “fold change (FC)” value (A549 [10]) was 1.07 and the “fold change (FC)” value (A549 [11]) was 1.14. It also gave a fold change (FC) [12] of 0.32, an IC50 (A549/TR) of 2200 nM and an Activity [13] of 18.6 nmol/mg. The Activity [14] was “inactive”, the fold change (FC) [15] was 2 and the IC50 (L02 [16]) was 35 µM. For the same compound, the “fold change (FC)” value (A549 [17]) was 1.03, the inhibition in vivo at 15 mg/kg (A549 [18]) was 65.8% and the Activity (Mus musculus) was “Non-Toxic”. For the same compound, the “fold change (FC)” value (A549 [19]) was 1.11, the Activity (A549 [20]) was “Dose-dependent effect” and the IC50 (A549 [21]) was over 50 µM. For the same compound, the Activity (L02 [22]) was “Non-Toxic”, the IC50 (HCT-116) was 4.9 µM and the Activity [23] was “Dose-dependent effect”. For the same compound, the fold change (FC) [24] was 17.4, the Papp [25] was 46.5 ×10⁻⁶ cm/s and the fold change (FC) [26] was 2.96. The solubility [27] was 360 µg/mL (≈ 810 µM), the Selectivity ratio (Homo sapiens [28]) was 20.8 and the inhibition in vivo at 30 mg/kg (A549 [29]) was 87.1%. For the same compound, the fold change (FC) [30] was 2.41, the Selectivity ratio (Homo sapiens [31]) was 8.49 and the fold change (FC) [32] was 2.01. For the same compound, the inhibition in vivo at 50 mg/kg (A549 [33]) was 90.3% and the IC50 (A549 [34]) was 2100 nM.
